Laboratory results reported in PubChem BioAssay AID1963964 (Molecular Pharmacology Branch, DTP, NCI, 2024).

System: 997726-040-R-J2-PDC tumor spheroids, viability
Test: Anticancer human tumor 997726-040-R-J2-PDC patient-derived squamous cell lung carcinoma cell line growth inhibition [PI3K]
Conditions: spheroids with HUVEC and MSC; for IC50: curve of first compound; for viability, T/C: stronger effect = lower value
How it was run: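 Tumor cells grown as multi-cell spheroids with HUVEC endothelial cells and MSC fibroblast-like stroma were treated with targeted agents combined with inavolisib, alpelisib, duvelisib or copanlisib. Doses fell in half-log steps from near clinical Cmax, else from 10 microM. Viability was measured.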

[1] = second compound 0.00316 µM, first compound 0.0316 µM
[2] = second compound 0.00316 µM, first compound 0.1 µM
[3] = second compound 0.00316 µM, first compound 0.316 µM
[4] = second compound 0.00316 µM, first compound 1 µM
[5] = second compound 0.00316 µM, first compound 3.16 µM
[6] = second compound 0.00316 µM, first compound 10 µM
[7] = second compound 0.01 µM, first compound 0.0316 µM
[8] = second compound 0.01 µM, first compound 0.1 µM
[9] = second compound 0.01 µM, first compound 0.316 µM
[10] = second compound 0.01 µM, first compound 1 µM
[11] = second compound 0.01 µM, first compound 3.16 µM
[12] = second compound 0.01 µM, first compound 10 µM
[13] = second compound 0.0316 µM, first compound 0.0316 µM
[14] = second compound 0.0316 µM, first compound 0.1 µM
[15] = second compound 0.0316 µM, first compound 0.316 µM
[16] = second compound 0.0316 µM, first compound 1 µM
[17] = second compound 0.0316 µM, first compound 3.16 µM
[18] = second compound 0.0316 µM, first compound 10 µM
[19] = second compound 0.1 µM, first compound 0.0316 µM
[20] = second compound 0.1 µM, first compound 0.1 µM
[21] = second compound 0.1 µM, first compound 0.316 µM
[22] = second compound 0.1 µM, first compound 1 µM
[23] = second compound 0.1 µM, first compound 3.16 µM
[24] = second compound 0.1 µM, first compound 10 µM
[25] = second compound 0.316 µM, first compound 0.0316 µM
[26] = second compound 0.316 µM, first compound 0.1 µM
[27] = second compound 0.316 µM, first compound 0.316 µM
[28] = second compound 0.316 µM, first compound 1 µM
[29] = second compound 0.316 µM, first compound 3.16 µM
[30] = second compound 0.316 µM, first compound 10 µM
[31] = second compound 1 µM, first compound 0.0316 µM
[32] = second compound 1 µM, first compound 0.1 µM
[33] = second compound 1 µM, first compound 0.316 µM
[34] = second compound 1 µM, first compound 1 µM
[35] = second compound 1 µM, first compound 3.16 µM
[36] = second compound 1 µM, first compound 10 µM
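Further: spheroids exposed to compounds for seven days before readout.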

## Cn1nccc1Nc1nccc(-c2ccn(C(CO)c3ccc(Cl)c(F)c3)c(=O)c2)n1 (centres undefined) + COc1c(OCCCN2CCOCC2)ccc2c3n(c(=NC(=O)c4cnc(N)nc4)nc12)CCN3
Second compound 0.00316 µM
  IC50: 299 nM
Second compound 0.01 µM
  IC50: 40.8 nM
Second compound 0.0316 µM
  IC50: < 31.6 nM
Second compound 0.1 µM
  IC50: < 31.6 nM
Second compound 0.316 µM
  IC50: < 31.6 nM
Second compound 1 µM
  IC50: < 31.6 nM
[1]
  viability, T/C: 70.4%
[2]
  viability, T/C: 66.3%
[3]
  viability, T/C: 49.1%
[4]
  viability, T/C: 51.9%
[5]
  viability, T/C: 44.8%
[6]
  viability, T/C: 49.8%
[7]
  viability, T/C: 52%
[8]
  viability, T/C: 47.7%
[9]
  viability, T/C: 40.3%
[10]
  viability, T/C: 43.9%
[11]
  viability, T/C: 42.1%
[12]
  viability, T/C: 34.2%
[13]
  viability, T/C: 37.3%
[14]
  viability, T/C: 35.5%
[15]
  viability, T/C: 26.8%
[16]
  viability, T/C: 27.5%
[17]
  viability, T/C: 27.3%
[18]
  viability, T/C: 25.2%
[19]
  viability, T/C: 20.4%
[20]
  viability, T/C: 20.2%
[21]
  viability, T/C: 18.3%
[22]
  viability, T/C: 19%
[23]
  viability, T/C: 20%
[24]
  viability, T/C: 11.8%
[25]
  viability, T/C: 5.76%
[26]
  viability, T/C: 4.79%
[27]
  viability, T/C: 5.29%
[28]
  viability, T/C: 3.62%
[29]
  viability, T/C: 3.85%
[30]
  viability, T/C: 0.65%
[31]
  viability, T/C: 0.97%
[32]
  viability, T/C: 1.38%
[33]
  viability, T/C: 1.3%
[34]
  viability, T/C: 0.75%
[35]
  viability, T/C: 0.59%
[36]
  viability, T/C: 0.31%

## C[C@@H](NC(=O)c1ncnc(N)c1Cl)c1ncc(C(=O)Nc2cc(C(F)(F)F)c(Cl)cn2)s1 + COc1c(OCCCN2CCOCC2)ccc2c3n(c(=NC(=O)c4cnc(N)nc4)nc12)CCN3
Second compound 0.00316 µM
  IC50: > 10000 nM
Second compound 0.01 µM
  IC50: > 10000 nM
Second compound 0.0316 µM
  IC50: < 31.6 nM
Second compound 0.1 µM
  IC50: < 31.6 nM
Second compound 0.316 µM
  IC50: < 31.6 nM
Second compound 1 µM
  IC50: < 31.6 nM
[1]
  viability, T/C: 79.8%
[2]
  viability, T/C: 104%
[3]
  viability, T/C: 93.6%
[4]
  viability, T/C: 96.8%
[5]
  viability, T/C: 86%
[6]
  viability, T/C: 57.2%
[7]
  viability, T/C: 64.1%
[8]
  viability, T/C: 71.6%
[9]
  viability, T/C: 66.7%
[10]
  viability, T/C: 68.9%
[11]
  viability, T/C: 58.2%
[12]
  viability, T/C: 54.8%
[13]
  viability, T/C: 44%
[14]
  viability, T/C: 42.9%
[15]
  viability, T/C: 45.7%
[16]
  viability, T/C: 47.9%
[17]
  viability, T/C: 39.6%
[18]
  viability, T/C: 34.1%
[19]
  viability, T/C: 26.7%
[20]
  viability, T/C: 25.6%
[21]
  viability, T/C: 27.1%
[22]
  viability, T/C: 29.2%
[23]
  viability, T/C: 25.6%
[24]
  viability, T/C: 19.2%
[25]
  viability, T/C: 6.28%
[26]
  viability, T/C: 6%
[27]
  viability, T/C: 7.45%
[28]
  viability, T/C: 7.98%
[29]
  viability, T/C: 5.89%
[30]
  viability, T/C: 3.91%
[31]
  viability, T/C: 2.28%
[32]
  viability, T/C: 1.55%
[33]
  viability, T/C: 1.77%
[34]
  viability, T/C: 1.89%
[35]
  viability, T/C: 1.41%
[36]
  viability, T/C: 0.66%
